# From patent US11549123B2, “Plant EPSP synthases and methods of use” (PIONEER HI-BRED INTERNATIONAL, INC., priority 2015, dated 2023)
# Assays:
# Format in all cases: biochemical
# [1] = molecular target: Zea mays EPSPS variant 241A 278G (Zea mays, UniProt O24566, K240A/T277G); experiment: EPSPS reaction rate with or without 10 uM glyphosate, 241A 278G; details: pH 7; read-out: Reaction rate with 10 μM glyph, % no glyph; further: 50 µM PEP and S3P
# [2] = molecular target: Zea mays EPSPS variant WT-FS-E2 (102A 302S 391G 438R I208L) (Zea mays, UniProt O24566, E301S/E390G/G101A/I207L/V437R); experiment: EPSPS substrate saturation kinetics, WT-FS-E2
# Method: EPSPS activity was determined by quantifying the phosphate generated from the EPSPS reaction. Release of inorganic phosphate was coupled to reaction with 2-amino-6-mercapto-7-methylpurine ribonucleoside, catalyzed by purine-nucleoside phosphorylase (M R Webb, Proc. Natl. Acad. Sci. 89:4884-4887, 1992). The absorbance change that occurs was monitored at 360 nm, where the extinction is 11,200 M^−1 cm^−1, with a Spectramax plate reader (Molecular Devices). To determine kinetic parameters, the varied substrate was present at seven concentrations (the eighth being the blank, containing no substrate) ranging from 4 to 400 uM and the unvaried substrate present at saturation. […] Reactions were monitored with a Spectramax plate reader. […] KI was then calculated from the following form of the Michaelis-Menten equation for competitive inhibition: KI=KM[I]/(KM app−KM) KM approximates the dissociation constant of the enzyme-substrate complex while kcat is the rate of conversion of substrate to product when the substrate concentration is saturating. kcat/KM is a widely accepted parameter for catalytic efficiency when substrate concentration is low (˜KM). […] The parameter kcat/KM×KI is used to quantify both catalytic efficiency and insensitivity and thus the overall fitness of the enzyme. […]
# [3] = molecular target: T1, Zea mays EPSPS variant Zm-P107L (Zea mays, UniProt O24566, P106L); experiment: Rapid two-rate method for (kcat/KM)*KI, Zm-P107L
# T1 construct: native maize plus P107L; E. coli BL21(DE3), Ni-NTA purified
# Source text: (§1) There are several practical considerations for accurately estimating (kcat/KM)*KI with the rapid method. […] 2) The inhibitor concentration must be adjusted so as to obtain a degree of inhibition that minimally amplifies the error in the term v0-vi in Equation 3. If inhibition is too little, v0-vi will be small, and the error in the multiplier vi×v0/(v0-vi) will be large. […] 3) Substrate concentration should be set at the approximate KM of the parental variant(s), subject to the sensitivity of the assay. High substrate concentration obscures sensitivity to the inhibitor and reduces stringency for capturing improvements in KM. Depending on the necessity for speed, there exists opportunity for customizing enzyme and inhibitor concentrations. […] The rapid method was repeated for those and obtained data that correlated better with data obtained by substrate saturation analysis. For screening purposes however, that correlation step is not necessary. Conditions can be set so that variants with a pre-determined minimal fitness level are accurately quantified.
# (§2) In Table 15, parameters above the heavy line for the rapid method were obtained under standard conditions. For variants shown below the heavy line, the rapid analysis was repeated with enzyme or glyphosate concentrations adjusted as needed to generate sufficient signal within the limits for linear initial rates.
# [4] = molecular target: T2, Zea mays EPSPS variant Zm-H6 (868-H6) with A69V (H6-A69V) (Zea mays, UniProt O24566, A1R/A3W/A415G/A68V/A71Q/D401G/E301S/E390G/G101A/I207L/K83R/L97C/T278A/T360S/T440Q/V437R); experiment: Rapid two-rate method for (kcat/KM)*KI, H6-A69V; details: [E] 0.07 uM, [Gly] 1000 uM
# T2 sequence (O24566 with tags, fused parts or gaps A1R/A3W/A68V/A71Q/K83R/L97C/G101A/I207L/T278A/E301S/T360S/E390G/D401G/A415G/V437R/T440Q): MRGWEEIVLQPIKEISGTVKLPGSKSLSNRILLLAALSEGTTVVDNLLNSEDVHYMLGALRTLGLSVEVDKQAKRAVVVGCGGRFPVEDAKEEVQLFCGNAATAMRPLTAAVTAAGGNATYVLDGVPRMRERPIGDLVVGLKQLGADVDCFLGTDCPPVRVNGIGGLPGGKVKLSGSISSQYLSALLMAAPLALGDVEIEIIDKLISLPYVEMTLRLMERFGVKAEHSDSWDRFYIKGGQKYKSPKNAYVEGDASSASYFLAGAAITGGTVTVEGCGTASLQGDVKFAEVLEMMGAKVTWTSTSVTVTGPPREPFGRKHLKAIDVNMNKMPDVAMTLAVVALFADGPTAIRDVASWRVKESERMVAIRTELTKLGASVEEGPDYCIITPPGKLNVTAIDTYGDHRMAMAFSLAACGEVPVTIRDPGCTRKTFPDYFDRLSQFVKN
# Source text: as §1, §2
# Sequence of Zea mays EPSPS variant WT-FS-E2 (102A 302S 391G 438R I208L) (O24566 entry or part of it G101A/I207L/E301S/E390G/V437R): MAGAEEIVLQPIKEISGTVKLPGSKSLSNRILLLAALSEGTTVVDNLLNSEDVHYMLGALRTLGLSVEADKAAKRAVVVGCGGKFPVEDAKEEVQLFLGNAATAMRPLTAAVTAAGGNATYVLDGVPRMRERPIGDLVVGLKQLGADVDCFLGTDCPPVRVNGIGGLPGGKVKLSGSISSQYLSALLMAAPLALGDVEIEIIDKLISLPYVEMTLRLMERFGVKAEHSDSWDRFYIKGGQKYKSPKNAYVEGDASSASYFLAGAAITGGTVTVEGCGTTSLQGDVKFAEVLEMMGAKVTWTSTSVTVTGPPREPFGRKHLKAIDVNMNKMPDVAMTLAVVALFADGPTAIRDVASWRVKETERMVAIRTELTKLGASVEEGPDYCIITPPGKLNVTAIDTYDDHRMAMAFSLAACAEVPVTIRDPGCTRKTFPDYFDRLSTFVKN
# T1 sequence (O24566 entry or part of it P106L): as the sequence (O24566 entry or part of it G101A/I207L/E301S/E390G/V437R) above, with A102G, P107L, L208I, S302E, G391E, R438V counted along it
# Sequence of Zea mays EPSPS variant 241A 278G (O24566 entry or part of it K240A/T277G): as the sequence (O24566 entry or part of it G101A/I207L/E301S/E390G/V437R) above, with A102G, L208I, K241A, T278G, S302E, G391E, R438V counted along it
compound,measurement,setting,value
"O=C(O)CNCP(=O)(O)O [glyphosate, N-phosphonomethylglycine]",activity at 10 µM,[1],3.75%
same,Ki,[2],663 µM
same,(kcat/KM)*KI,"[2]; PEP as substrate, glyphosate as inhibitor",4512
same,(kcat/KM)*KI,"[3]; rapid method repeated, [E] 0.014 uM, [Gly] 10 uM",91
same,(kcat/KM)*KI,"[3]; rapid method, [E] 0.07 uM, [Gly] 1000 uM",111
same,(kcat/KM)*KI,[4],2977
